Experimental data reported in US12416008B2, “Compositions and methods of use for small-molecule regulation of CRISPR-Cas9 activity using RNA aptamers” (priority 2019, dated 2025).

System: galK 1 site
Assay: red/white colony screen of editing efficiency at the galK 1 site (CREATE recombineering)
Assay type: cell-based, E. coli MG1655
Details: for Editing Efficiency 1 mM Theo: induced for 3 hours with 1 mM theophylline; for Editing Efficiency no Theo: no theophylline, 3 hours recovery
Description: Candidates from this enriched library were analyzed to inform an improved library design. After three selection/counterselection steps, cells were plated on M63 selection medium^20 and 150 colonies were picked. Each isolated candidate was then transformed into unedited E. coli to screen for theophylline-responsive constructs using a red/white colony assay to quantify the percentage of edited bacteria. Colonies with an unedited galK site appear red whereas edited colonies appear white (FIG. 5). The percentage of white colonies is considered the editing efficiency. Gene editing was induced as previously described with or without adding theophylline and the editing efficiencies were compared.
The protocol established by Garst et al was mainly followed. LB containing kanamycin and chloramphenicol was inoculated with MGλ9 cells and grown overnight at 30° C. The stationary culture was diluted 100 fold in LB, containing chloramphenicol, kanamycin and 0.2% arabinose and grown to an OD600=0.4-0.6 in 25 mL LB. The culture was heat-shocked in a shaking waterbath at 42° C. for 15 minutes to induce expression of the lambda-red proteins from pSIM5. Then, the culture was washed in two volumes of ice-cold deionized water, resuspended in 500 μl deionized water and 50 μl of the cell suspension was electroporated with 200 ng of a CREATE plasmid that encodes gRNA and homology template. The transformants were recovered in 4 mL of LB, containing 0.2% arabinose and optionally 1 mM theophylline or 1 μM anhydrotetracycline (ATC), and shaken at 37° C. for 3 hours before plating on MacConkey Agar. To estimate the number of cfu, aliquots were plated on LB agar 1 hour after transformation.
In order to assess the frequency of gene editing, a red/white screen was used to visualize the introduction of a stop codon into the galK gene by CREATE. The original CREATE protocol was used for inducing gene editing and after 3 hours of recovery (with or without the agRNA ligand) a series of dilutions of the cultures were plated on MacConkey Agar plates containing 1% galactose. Bacterial colonies with a mutated galK* site appear white on the plates, whereas non-edited colonies appear red. The editing efficiency could be calculated by dividing the number of edited colonies over the total number of colonies. By comparing the editing efficiency in presence versus absence of the ligand, a dynamic range of the in vivo activity could be determined.
When screening the enriched libraries for switchable constructs, the transformants were recovered in 4 mL of LB broth, a dilution series was plated for every construct and the experiment was only carried out once due to the large volume of colonies screened (˜250 in total). When the constructs A9 and GU19 were characterized in detail, triplica of the experiment were carried out.

| Substance | gene editing activity and ligand dependence (in words) (with and without aptamer ligand) | Editing Efficiency 1 mM Theo | Editing Efficiency no Theo |
| --- | --- | --- | --- |
| 3-methylxanthine aptamer: theophylline aptamer domain with C22A point mutation at the ligand-binding site; SEQ ID NO: 96 (AUACCAGCUUCGAAAGAAGCCAUUGGCAG; listed as RNA, chemistry not fully specified) | not activatable by theophylline |  |  |
| A8: agRNA cassette CGGGGGACAATAGG, SEQ ID NO: 12 (expressed or natural sequence) |  | 82% | 2% |
| A10: agRNA cassette GATGGGCCTCCACC, SEQ ID NO: 9 (expressed or natural sequence) |  | 14% | 0% |
| A14: agRNA cassette GGAGGTACGGTGCC, SEQ ID NO: 10 (expressed or natural sequence) |  | 87% | 2% |
| A26: agRNA cassette GGGGGGCCACGCGC, SEQ ID NO: 13 (expressed or natural sequence) |  | 89% | 5% |
| A34: agRNA cassette TAGTTTAAACCGTT, SEQ ID NO: 7 (expressed or natural sequence) |  | 57% | 12% |
| AU1: agRNA cassette AGGGGGCCTATAAT, SEQ ID NO: 15 (expressed or natural sequence) |  | 2% | 0% |
| AU2: agRNA cassette ACCAGGCCAAGTAT, SEQ ID NO: 16 (expressed or natural sequence) |  | 4% | 0% |
| AU3: agRNA cassette ACAAGGCCCATAAT, SEQ ID NO: 17 (expressed or natural sequence) |  | 72% | 1% |
| AU4: agRNA cassette AACAGGCCTTAATT, SEQ ID NO: 18 (expressed or natural sequence) |  | 0% | 0% |
| AU5: agRNA cassette ACTCGGCCTGAACT, SEQ ID NO: 19 (chemistry not given here) |  | 43% | 0% |
| AU6: agRNA cassette AAGGGGCCTATAAT, SEQ ID NO: 20 (expressed or natural sequence) |  | 77% | 5% |
| AU7: agRNA cassette AGTAGGCCTTTCAT, SEQ ID NO: 21 (expressed or natural sequence) |  | 58% | 0% |
| AU8: agRNA cassette ACGGGGCCTAATAT, SEQ ID NO: 22 (expressed or natural sequence) |  | 48% | 0.3% |
| AU9: agRNA cassette AAACGGCCCACTGT, SEQ ID NO: 23 (expressed or natural sequence) |  | 22% | 1% |
| AU10: agRNA cassette ATAGGGCCATCCAT, SEQ ID NO: 24 (expressed or natural sequence) |  | 13% | 0% |
| AU11: agRNA cassette AATAGGCCACTTAT, SEQ ID NO: 25 (expressed or natural sequence) |  | 25% | 0% |
| AU12: agRNA cassette AGAGGGCCGGGCGT, SEQ ID NO: 26 (expressed or natural sequence) |  | 26% | 0% |
| AU14: agRNA cassette AGTGGGCCAGCCTT, SEQ ID NO: 27 (expressed or natural sequence) |  | 17% | 0% |
| AU15: agRNA cassette ACCCGGCCATTCAT, SEQ ID NO: 28 (expressed or natural sequence) |  | 5% | 0% |
| AU16: agRNA cassette AACCGGCCCCGAGT, SEQ ID NO: 29 (expressed or natural sequence) |  | 6% | 0% |
| AU17: agRNA cassette AAAGGGCCAGGCAT, SEQ ID NO: 30 (expressed or natural sequence) |  | 4% | 0% |

| Substance | gene editing activity and ligand dependence (in words) (with and without aptamer ligand) | Editing Efficiency 1 mM Theo | Editing Efficiency no Theo |
| --- | --- | --- | --- |
| AU18: agRNA cassette AATAGGCCCAGACT, SEQ ID NO: 31 (expressed or natural sequence) |  | 7% | 0% |
| AU19: agRNA cassette AATAGGCCCGCAGT, SEQ ID NO: 32 (expressed or natural sequence) |  | 10% | 0% |
| AU20: agRNA cassette AAATGGCCGGCAAT, SEQ ID NO: 33 (expressed or natural sequence) |  | 0% | 0% |
| C2A2: agRNA cassette TAGTGGCTACCATG, SEQ ID NO: 14 (expressed or natural sequence) |  | 84% | 5% |
| G1B1: agRNA, 2×4 IL and upper stem cassette GTATCGCTTAAGCC, SEQ ID NO: 2 (expressed or natural sequence) |  | 59% | 1% |
| GC1: agRNA cassette GCTGGGCCCTTCCC, SEQ ID NO: 52 (expressed or natural sequence) |  | 0% | 0% |
| GC2: agRNA cassette GTCAGGCCTATACC, SEQ ID NO: 53 (expressed or natural sequence) |  | 0% | 0% |
| GC3: agRNA cassette GTCCGGCCCCACAC, SEQ ID NO: 54 (expressed or natural sequence) |  | 12% | 0% |
| GC4: agRNA cassette GGTCGGCCAGTAGC, SEQ ID NO: 55 (expressed or natural sequence) |  | 1% | 0% |
| GC5: agRNA cassette GTTGGGCCGCGGAC, SEQ ID NO: 56 (expressed or natural sequence) |  | 0% | 0% |
| GC6: agRNA cassette GATTGGCCAGCAAC, SEQ ID NO: 57 (expressed or natural sequence) |  | 40% | 1% |
| GC7: agRNA cassette GGGGGGCCGAATAC, SEQ ID NO: 58 (expressed or natural sequence) |  | 71% | 1% |
| GC8: agRNA cassette GGACGGCCCTGTGC, SEQ ID NO: 59 (expressed or natural sequence) |  | 0% | 1% |
| GC9: agRNA cassette GCAGGGCCTCTAAC, SEQ ID NO: 60 (expressed or natural sequence) |  | 0% | 0% |
| GC10: agRNA cassette GAGCGGCCACAACC, SEQ ID NO: 61 (expressed or natural sequence) |  | 0% | 0% |
| GC11: agRNA cassette GCGTGGCCCTTCCC, SEQ ID NO: 62 (chemistry not given here) |  | 3% | 0% |
| GC12: agRNA cassette GATAGGCCAGTTAC, SEQ ID NO: 63 (expressed or natural sequence) |  | 36% | 1% |
| GC13: agRNA cassette GGAAGGCCTTATAC, SEQ ID NO: 64 (expressed or natural sequence) |  | 64% | 0% |
| GC15: agRNA cassette GCATGGCCTACTCC, SEQ ID NO: 65 (expressed or natural sequence) |  | 21% | 1% |
| GC16: agRNA cassette GATAGGCCAACACC, SEQ ID NO: 66 (expressed or natural sequence) |  | 65% | 1% |
| GC17: agRNA cassette GACCGGCCCCCCGC, SEQ ID NO: 67 (expressed or natural sequence) |  | 2% | 0% |
